For the assay, the target named is T1, Pif1 (Saccharomyces cerevisiae, UniProt P07271).
T1 sequence (P07271 46-859): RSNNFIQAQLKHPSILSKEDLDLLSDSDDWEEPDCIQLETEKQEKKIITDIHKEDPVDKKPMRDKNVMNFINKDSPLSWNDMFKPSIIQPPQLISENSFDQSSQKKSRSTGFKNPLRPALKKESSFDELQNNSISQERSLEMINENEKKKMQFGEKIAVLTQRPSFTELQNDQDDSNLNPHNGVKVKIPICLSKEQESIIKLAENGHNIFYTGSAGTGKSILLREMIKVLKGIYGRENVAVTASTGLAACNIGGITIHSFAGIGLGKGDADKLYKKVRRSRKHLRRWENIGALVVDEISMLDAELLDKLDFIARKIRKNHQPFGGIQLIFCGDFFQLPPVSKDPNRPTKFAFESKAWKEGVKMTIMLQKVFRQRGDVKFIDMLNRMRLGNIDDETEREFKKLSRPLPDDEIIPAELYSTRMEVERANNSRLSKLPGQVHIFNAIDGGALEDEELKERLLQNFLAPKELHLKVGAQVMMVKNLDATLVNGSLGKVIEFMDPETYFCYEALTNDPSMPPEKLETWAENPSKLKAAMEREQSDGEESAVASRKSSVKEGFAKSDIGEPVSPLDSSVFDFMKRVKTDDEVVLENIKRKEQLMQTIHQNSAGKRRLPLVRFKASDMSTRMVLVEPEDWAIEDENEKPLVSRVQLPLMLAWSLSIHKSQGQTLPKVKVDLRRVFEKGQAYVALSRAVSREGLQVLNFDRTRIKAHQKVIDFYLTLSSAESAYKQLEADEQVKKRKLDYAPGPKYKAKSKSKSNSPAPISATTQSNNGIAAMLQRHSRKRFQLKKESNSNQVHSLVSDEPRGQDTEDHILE
Description: stopped-flow Cy3 fluorescence, dissociation of pre-formed Pif1-dT20-Cy3 complex. It counts as binding. The note with it: Buffer T200 (200 mM NaCl, pH 8.3, 5 mM MgCl2), 22°C; 1 mM ADP, 0.1 mg/ml heparin.

The source of these data is article PMC3632115 (Nucleic Acids Research, 2013).

Regarding `Nc1ncnc2c1ncn2[C@@H]1O[C@H](COP(=O)(O)OP(=O)(O)O)[C@@H](O)[C@H]1O` [ADP], the “apparent rate of dissociation” value is “This is true also for ADP, the product of ATP hydrolysis (Figure 1b, green)”.
